Legend:
Assay type in all cases: physicochemical
[1] = Decomposition of the product in hot water, observed during work-up; settings: in water at 70-80° C.
Procedure: The reaction mixtures were filtered to remove solvents. The wet cake was charged to a reactor. […] 6 kg of MS001 Silica Thiol was added to the filtrate at about 60-70° C., stirred for 1 hour, and filtered through a pad of fresh Celite.
A total of 20 kg of a compound of Formula (X) was made from 56.6 kg of a compound of Formula (IV), with 98.0% and a 73.5% yield. The yield of the manufacture is consistent to the Lab batch.

[2] = Stability of the Type A crystal polymorph (stated as a conclusion, no method given); settings: solid crystal polymorph identified as Type A
[3] = Solubility of the Type A crystal polymorph (stated as a conclusion, no method given); settings: solid crystal polymorph identified as Type A

Which “stability in water at elevated temperature” value [1] does the source give for `N[C@@H](COC(=O)CCC(=O)O)C(=O)O` [Formula (X)] here?
The value was “could be decomposed in water”.

And the “stability of the solid crystal polymorph Type A” value [2]?
The value was “highly stable”.

What about the “solubility of the solid crystal polymorph Type A” value [3] of the same molecule?
The value was “soluble”.

Reference: patent publication US20210323908A1, “PROCESS FOR PRODUCING TCA CYCLE INTERMEDIATE CONJUGATES” (IMBRIA PHARMACEUTICALS, INC., priority 2020, published 2021)
